Results published in patent US20220363649A1, “ORGANIC COMPOUNDS” (Rutgers, The State University of New Jersey, priority 2018, published 2022).
Where two headings read alike, the source gives them in different places.

Assays:
S1R = biological target: T1, S1R (Cavia porcellus, UniProt Q60492); assay: S1R radiolabeled binding assay, guinea pig whole brain, [3H]-pentazocine
T1 construct: performed using Guinea pig whole brain according to the protocol previously reported; from tissue; host or cells: guinea pig whole brain membrane preparations
T1 sequence (Q60492 whole entry): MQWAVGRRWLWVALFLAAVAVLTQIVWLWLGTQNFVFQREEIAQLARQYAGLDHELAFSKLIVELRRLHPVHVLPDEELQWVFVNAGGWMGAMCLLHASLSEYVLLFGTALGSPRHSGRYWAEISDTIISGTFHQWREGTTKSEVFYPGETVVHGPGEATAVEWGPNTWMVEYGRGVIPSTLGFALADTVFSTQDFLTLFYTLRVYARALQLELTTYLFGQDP
Procedure: Following 1 h incubation at 25° C., the binding assay was terminated by addition of cold buffer. The mixture was then filtered through Whatman GF/B filters and washed with cold buffer. Radioactivity was identified using the liquid scintillation counter.
Receptor binding data were analyzed by nonlinear regression of saturation and competition curves using the GraphPad Prism 7.0 software (GraphPad Software, La Jolla, Calif.).
(§1) Radiolabeled binding assays were conducted using two different species.

human S1R = biological target: T2, human S1R (Homo sapiens, UniProt Q99720); assay: Human S1R radiolabeled binding assay, human jurkat cell membranes, [3H]-pentazocine; conditions: human membranes (Compounds 10-76)
T2 construct: experimentally determined in human jurkat cell membranes using 15.0 nM; endogenous in cells; host or cells: human Jurkat cell membranes
T2 sequence (Q99720 whole entry): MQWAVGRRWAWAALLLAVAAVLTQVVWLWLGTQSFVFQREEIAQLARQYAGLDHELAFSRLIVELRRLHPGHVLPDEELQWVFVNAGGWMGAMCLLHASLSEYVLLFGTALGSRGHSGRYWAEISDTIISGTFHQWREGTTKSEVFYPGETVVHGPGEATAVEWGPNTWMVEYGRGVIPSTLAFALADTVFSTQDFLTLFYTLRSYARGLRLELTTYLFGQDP
Procedure: The binding process was terminated by addition of cold buffer. Then, the mixture was filtered and washed with cold buffer. Radioactivity was identified using the TopCount NTX liquid scintillation counter (PerkinElmer, Waltham, Mass.).
as §1

human S2R = biological target: T3, human S2R (Homo sapiens, UniProt Q5BJF2); assay: Human S2R radiolabeled binding assay, Jurkat Clone E6-1 cell membranes, [3H] DTG; conditions: for Ki: human membranes (Compounds 10-76); for S2R % at 1 μM: human membranes
T3 construct: performed using Jurkat cell line Clone E6-1 cells with 0.025 μM; endogenous in cells; host or cells: Jurkat Clone E6-1 cell membranes
T3 sequence (Q5BJF2 whole entry): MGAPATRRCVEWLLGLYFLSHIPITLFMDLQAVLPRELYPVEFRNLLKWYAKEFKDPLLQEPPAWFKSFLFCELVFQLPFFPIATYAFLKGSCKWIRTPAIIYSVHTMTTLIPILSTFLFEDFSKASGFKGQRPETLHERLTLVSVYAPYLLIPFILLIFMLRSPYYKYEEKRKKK
Procedure: The radiolabeled binding assay of the human S1R and S2R were performed using human jurkat cell membranes according to the protocol previously reported (Ganapathy, et al., 1999, J. Pharmacol. Exp. Ther. 289:251-60).
DTG as radioligand. […] The cells were incubated in RPMI 1640 Medium with 10% FBS, 100 U/ml penicillin and […] streptomycin. After incubation, the cells were suspended in 5 mM potassium phosphate buffer (pH=7.6). The membrane protein concentration was controlled at 5 mg/mL. The collected membrane protein was incubated with ligands in potassium phosphate buffer for 1 hour at room temperature and terminated by adding ice-cold buffer. Then the mixture is filtered with 0.7 μm syringe filter and washed three times. The radioactivity is determined by liquid scintillation spectrometry.
Radiolabeled binding assays were conducted using two different species. Compounds 1-9 were assayed using guinea pig brain membranes for the binding assays. Compounds 10-76 were assayed using human brain membranes for the binding assays.

[1] = guinea pig brain membranes (Compounds 1-9), read-out: S1R Ki

SMILES	Ki (human S1R)	Ki (human S2R)	further results
Cn1nc(CN2CCCCC2)nc1-c1ccc(C(C)(C)C)cc1 [Compound 1, 1-((5-(4-(tert-butyl)phenyl)-1-methyl-1H-1,2,4-triazol-3-yl)methyl)piperidine]	–	–	Ki (S1R; [1]): 3.72 nM
Cn1nc(CN2CCOCC2)nc1-c1ccc(C(C)(C)C)cc1 [Compound 2, 4-((5-(4-(tert-butyl)phenyl)-1-methyl-1H-1,2,4-triazol-3-yl)methyl)morpholine]	–	–	Ki (S1R; [1]): 56 nM
CN1CCN(Cc2nc(-c3ccc(C(C)(C)C)cc3)n(C)n2)CC1 [Compound 3, 1-((5-(4-(tert-butyl)phenyl)-1-methyl-1H-1,2,4-triazol-3-yl)methyl)-4-methylpiperazine]	–	–	Ki (S1R; [1]): 131 nM
Cn1nc(CN2CCN(c3ccccc3)CC2)nc1-c1ccc(C(C)(C)C)cc1 [Compound 4, 1-((5-(4-(tert-butyl)phenyl)-1-methyl-1H-1,2,4-triazol-3-yl)methyl)-4-phenylpiperazine]	–	–	Ki (S1R): 14.3 nM
Cn1nc(CN2CCN(CCc3ccccc3)CC2)nc1-c1ccc(C(C)(C)C)cc1 [Compound 5, 1-((5-(4-(tert-butyl)phenyl)-1-methyl-1H-1,2,4-triazol-3-yl)methyl)-4-phenethylpiperazine]	–	–	Ki (S1R): 10.2 nM
Cn1nc(CN2CCN(Cc3ccccc3)CC2)nc1-c1ccc(C(C)(C)C)cc1 [Compound 6, 1-benzyl-4-((5-(4-(tert-butyl)phenyl)-1-methyl-1H-1,2,4-triazol-3-yl)methyl)piperazine]	–	–	Ki (S1R; [1]): 5.52 nM
Cn1nc(CN2CCC(Cc3ccccc3)CC2)nc1-c1ccc(C(C)(C)C)cc1 [Compound 7, 4-benzyl-1-((5-(4-(tert-butyl)phenyl)-1-methyl-1H-1,2,4-triazol-3-yl)methyl)piperidine]	–	–	Ki (S1R; [1]): 2.02 nM
CN(Cc1nc(-c2ccc(C(C)(C)C)cc2)n(C)n1)CC1CC1 [Compound 9, 1-(5-(4-(tert-butyl)phenyl)-1-methyl-1H-1,2,4-triazol-3-yl)-N-(cyclopropylmethyl)-N-methylmethanamine]	–	–	Ki (S1R; [1]): 0.61 nM
Cn1nc(CN2CCCC2)nc1-c1ccc(C2(C(F)(F)F)CC2)cc1 [Compound 10, 1-methyl-3-(pyrrolidin-1-ylmethyl)-5-(4-(1-(trifluoromethyl)cyclopropyl)phenyl)-1H-1,2,4-triazole]	9.9 nM	> 1000 nM	–
Cc1cc(-c2nc(CN3CCCC3)nn2C)ccc1C(F)(F)F [Compound 13, 1-methyl-5-(3-methyl-4-(trifluoromethyl)phenyl)-3-(pyrrolidin-1-ylmethyl)-1H-1,2,4-triazole]	20.8 nM	> 1000 nM	–
Cn1nc(CN2CCCC2)nc1-c1ccc2c(c1)CCCC2 [Compound 15, 1-methyl-3-(pyrrolidin-1-ylmethyl)-5-(5,6,7,8-tetrahydronaphthalen-2-yl)-1H-1,2,4-triazole]	35.7 nM	> 1000 nM	–
Cn1nc(CN2CCCC2)nc1-c1ccc2cc(Cl)sc2c1 [Compound 25, 5-(2-chlorobenzo[b]thiophen-6-yl)-1-methyl-3-(pyrrolidin-1-ylmethyl)-1H-1,2,4-triazole]	37 nM	> 1000 nM	–
CCn1nc(CN2CCCC2)nc1-c1ccc(C(C)(C)C)cc1 [Compound 30, 5-(4-(tert-butyl)phenyl)-1-ethyl-3-(pyrrolidin-1-ylmethyl)-1H-1,2,4-triazole]	4.8 nM	1710 nM	–
CC(C)n1nc(CN2CCCC2)nc1-c1ccc(C(C)(C)C)cc1 [Compound 31, 5-(4-(tert-butyl)phenyl)-1-isopropyl-3-(pyrrolidin-1-ylmethyl)-1H-1,2,4-triazole]	2.16 nM	1460 nM	–
CC(C)(C)c1ccc(-c2nc(CN3CCCC3)nn2C2CC2)cc1 [Compound 32, 5-(4-(tert-butyl)phenyl)-1-cyclopropyl-3-(pyrrolidin-1-ylmethyl)-1H-1,2,4-triazole]	13.9 nM	750 nM	–
CCn1nc(CN2CCC3(CCCC3)C2)nc1-c1ccc(C(C)(C)C)cc1 [Compound 65, 2-((5-(4-(tert-butyl)phenyl)-1-ethyl-1H-1,2,4-triazol-3-yl)methyl)-2-azaspiro[4.4]nonane]	0.52 nM	–	S2R % at 1 μM (human S2R): 96% at 1 μM
CCn1nc(CN2CC3CCCC3C2)nc1-c1ccc(C(C)(C)C)cc1 (stereo not shown) [Compound 66, 2-((5-(4-(tert-butyl)pheny)-1-ethyl-1H-1,2,4-triazol-3-yl)methyl)octahydrocyclopenta[c]pyrrole]	0.57 nM	–	S2R % at 1 μM (human S2R): 73% at 1 μM

Now from value to compound, other results behind:

Ki (human S1R)	Ki (human S2R)	SMILES	further results
22.1 nM	> 1000 nM	Cn1nc(CN2CCCC2)nc1-c1ccc(Cl)c(Cl)c1 [Compound 11, 5-(3,4-dichlorophenyl)-1-methyl-3-(pyrrolidin-1-ylmethyl)-1H-1,2,4-triazole]	–
32.3 nM	> 1000 nM	Cn1nc(CN2CCCC2)nc1-c1cccc(C2(C(F)(F)F)CC2)c1 [Compound 17, 1-methyl-3-(pyrrolidin-1-ylmethyl)-5-(3-(1-(trifluoromethyl)cyclopropyl)phenyl)-1H-1,2,4-triazole]	–
0.89 nM	190 nM	Cn1nc(CN2CCC(C)(C)C2)nc1-c1ccc(C(C)(C)C)cc1 [Compound 26, 5-(4-(tert-butyl)phenyl)-3-((3,3-dimethylpyrrolidin-1-yl)methyl)-1-methyl-1H-1,2,4-triazole]	–
0.56 nM	–	CC(C)(C)c1ccc(-c2nc(CN3CCC4(CCCC4)C3)nn2C2CC2)cc1 [Compound 75, 2-((5-(4-(tert-butyl)phenyl)-1-cyclopropyl-1H-1,2,4-triazol-3-yl)methyl)-2-azaspiro[4.4]nonane]	S2R % at 1 μM (human S2R): 105% at 1 μM
